system: Plasmodium falciparum; assay: GSK_TCMDC: Inhibition of Plasmodium falciparum 3D7 in whole erythrocytes, using parasite LDH activity as an index of growth.; assay type: functional, organism-based; settings: Plasmodium falciparum, 3D7

Going from O=[N+]([O-])c1ccc(Nc2nc(N/N=C/c3cccc(O)c3)nc(N3CCCC3)n2)cc1 to O=C(Nc1ccc(C(=O)OCC2CCCN3CCCCC23)cc1)c1ccc([N+](=O)[O-])cc1 (stereo not given), the XC50 falls from 1080 nM to 716 nM (1.5-fold).

CCN(CC)CCN(Cc1ccc(-c2ccc(C(F)(F)F)cc2)cc1)C(=O)Cn1c(CCc2cc(F)c(F)c(F)c2)nc(=O)c2ccccc21 and CCN(CC)CCN(Cc1ccc(-c2ccc(C(F)(F)F)cc2)cc1)C(=O)Cn1c(CCc2ccc(F)c(F)c2F)nc(=O)c2ccc(F)cc21 are within 1.5-fold of each other in XC50: 827 nM for the first, 736 nM for the second.

Going from CN1CCN(c2ccc(Nc3nccc(-c4c(-c5cccc(NC(=O)c6c(F)cccc6F)c5)nn5ccccc45)n3)cc2)CC1 to O=C(Nc1ccc(N2CCN(Cc3cccc(F)c3)CC2)cc1)c1cccs1, the XC50 rises from 112 nM to 682 nM (6.1-fold).

CCc1ccc2nc(-c3ccc(F)cc3)nc(SCC(=O)Nc3sc(C)c(C)c3C#N)c2c1 and COc1ccc(Nc2nc(C)cc(NCc3ccc(-c4c(C)noc4C)cc3)n2)cc1 are within 1.5-fold of each other in XC50: 643 nM for the first, 844 nM for the second.

CN(C)CC(=O)NCC(NCCCNc1cc(=O)c2ccccc2[nH]1)c1cc(Br)cc(Br)c1 (stereo not given) and OC(CNCCc1ccccc1)Cn1c2ccc(Cl)cc2c2cc(Cl)ccc21 (stereo not given) are within 1.5-fold of each other in XC50: 1050 nM for the first, 733 nM for the second.

CCCN(CCC)S(=O)(=O)c1ccc(C(=O)N2CCC(C(=O)OCC)CC2)cc1 and CCCCCCCN1CCC(CC(=O)Nc2ccnc3ccc(OC)cc23)CC1 are within 1.5-fold of each other in XC50: 803 nM for the first, 722 nM for the second.

CC(C)(CN)c1nc(-c2ccc(Br)c(O)c2)c(-c2ccncc2)[nH]1 and Nc1ccc(-c2ccc3ccnc(N)c3c2)cc1 are within 1.5-fold of each other in XC50: 965 nM for the first, 682 nM for the second.

Cc1ccc(-c2ccc3c(c2)C=C(C(=O)NCC2CCN(CC4CCN(C(=O)/C=C/c5ccc(Cl)c(Cl)c5)CC4)CC2)CCC3)cc1 and COc1ccc(-c2ccc(NC(=O)c3ccccc3)cc2)cc1CN1CCCN(C)CC1 are within 1.5-fold of each other in XC50: 777 nM for the first, 905 nM for the second.

First: O=C(Nc1ccc2c(c1)CN(Cc1ccc(N3CCCC3)o1)CCC2)c1cncs1
Second: O=C(Nc1ccc2c(c1)CCC2)N[C@H]1CCN(Cc2ccc(OCCCN3CCCCC3)cc2)C1
The XC50 of the first is 1.8-fold higher: 1570 nM for the first, 864 nM for the second.

Compared with Clc1ccc(CCNCCCCCCNCCc2ccc3c(c2)OCO3)cc1, c1ccc2c(NCCCCCCCCCNc3ccnc4ccccc34)ccnc2c1 is 15-fold lower in XC50: 1730 nM for the first, 115 nM for the second.

First: CC(=O)Nc1nc(C)c(-c2csc(Nc3ccc(Cl)cc3)n2)s1
Second: COc1cc(OC)cc(C(=O)Nc2nc(-c3ccccn3)cs2)c1
The XC50 of the first is 2.2-fold lower: 258 nM for the first, 561 nM for the second.

Going from COc1cc(Nc2nccc(N3CCC(NC(=O)Nc4cccc(C(C)=O)c4)C3)n2)cc(OC)c1OC (stereo not given) to COc1cc(C)nc2ccc(NC(=O)Nc3ccc([N+](=O)[O-])cc3C)cc12, the XC50 falls from 973 nM to 602 nM (1.6-fold).

Compared with Cc1cccc2nc(-c3cccc(-c4ccc(NC(=O)NCc5cccc(F)c5)cc4)c3)[nH]c12, Cc1cccc2nc(-c3cccc(-c4cccc(NC(=O)Cc5c[nH]cn5)c4)c3)[nH]c12 is 2.9-fold higher in XC50: 236 nM for the first, 675 nM for the second.

Cc1cccc(C(=O)Nc2ccnc(N3CCC(N(C)Cc4cccc(O)c4)CC3)c2)c1 and O=C(Nc1cccc(-c2ccc(NCCCN3CCCC3)nc2)c1)c1ccccc1 are within 1.5-fold of each other in XC50: 920 nM for the first, 865 nM for the second.

Compared with Cc1cccc2nc(-c3ccc(-c4ccc(CN5CCN(c6ccncc6)CC5)cc4)cc3)[nH]c12, CC(O)C1CCCCN1C(=O)c1cccc(-c2ccc(-c3nc4cc(F)ccc4[nH]3)cc2)c1 (stereo not given) is 4.6-fold higher in XC50: 163 nM for the first, 742 nM for the second.

Oc1cccc2ccc(Nc3ccccn3)nc12 and Oc1ccc2ccccc2c1CNCC1CCCCC1 are within 1.5-fold of each other in XC50: 752 nM for the first, 667 nM for the second.

O=C(Nc1ccc(Cn2ncc(N3CCCNCC3)c(Cl)c2=O)cc1)Nc1cc(F)cc(C(F)(F)F)c1 and Cc1cc(C(=O)Nc2ccc3c(ccn3C3CCCN(Cc4ccc(C(F)(F)F)cc4F)CC3)c2)no1 (stereo not given) are within 1.5-fold of each other in XC50: 767 nM for the first, 765 nM for the second.

First: CCOc1cc(C(=O)Nc2ccccc2N2CCN(S(C)(=O)=O)CC2)cc(OCC)c1OCC
Second: COc1ccc(N2CCN(CCc3ccc(NC(=O)c4ccc([N+](=O)[O-])cc4)cc3)CC2)c(OC)c1
The XC50 of the first is 1.8-fold lower: 653 nM for the first, 1170 nM for the second.

First: CCCCCCc1cc2cc(-c3csc(C=Cc4ccccc4)n3)c(=O)oc2cc1O
Second: CCCCc1cc(O)c2c(c1)OC(C)(C)C=C2C1=CCN(Cc2ccccc2)CC1
The XC50 of the first is 3.9-fold higher: 970 nM for the first, 247 nM for the second.

First: CCOC(=O)c1cn(CC)c2cc(F)c(OC3CC4CCC3(C)C4(C)C)cc2c1=O (stereo not given)
Second: Cc1cc(C)cc(N2C(N)=NC(N)=NC2(C)C)c1
The XC50 of the first is 22-fold higher: 928 nM for the first, 42 nM for the second.

First: CCCCCCCCOc1c(OCC)cc(Cc2cnc(N)nc2N)cc1OCC
Second: Cc1ccc(C(C)C)c(Oc2cnc(NC(CO)c3ccccc3)nc2N)c1 (stereo not given)
The XC50 of the first is 1.6-fold higher: 1530 nM for the first, 962 nM for the second.

N#Cc1ccc(-c2ccc(OCC(O)CN3CCCN(C(=O)C(c4ccc5c(c4)OCO5)N4CCN(C/C=C/c5ccccc5)CC4)CC3)cc2)cc1 (stereo not given) and O=C(Nc1ccc2c(c1)CCNCC2)c1ccc(-c2ccc(Cl)cc2)cc1 are within 1.5-fold of each other in XC50: 654 nM for the first, 814 nM for the second.

CN1CCN(c2ccc3nccc(CCN4CCC(NCc5ccc6c(n5)NC(=O)CO6)CC4)c3n2)CC1 and COc1ccc2nccc([C@@H](O)CN3CCC(NCc4cc5ccccc5nn4)CC3)c2c1 are within 1.5-fold of each other in XC50: 824 nM for the first, 1200 nM for the second.

Compared with Cc1nnsc1C(=O)Nc1cccc(-c2ccc(-c3nc4cc(C(F)(F)F)ccc4[nH]3)cc2)c1, CN1CCC(C(=O)Nc2cccc(-c3cccc(-c4nc5cc(F)ccc5[nH]4)c3)c2)CC1 is 2.2-fold higher in XC50: 314 nM for the first, 695 nM for the second.

Oc1ccc(-c2nc(-c3ccc4oc5ccc(-c6[nH]c(-c7ccc(O)cc7)nc6-c6ccccc6)cc5c4c3)c(-c3ccccc3)[nH]2)cc1 and NC1CCN(c2nc(NCCc3ccc(O)cc3)nc(NCc3ccccc3-c3ccccc3)n2)CC1 are within 1.5-fold of each other in XC50: 1110 nM for the first, 822 nM for the second.

Cc1ccc(NC(=O)Nc2ccc(Cl)cc2)cc1-c1cccc(C(=O)Nc2ccc(F)cc2)c1 and OC(c1ccc(Cl)cc1)(c1ccc(Cl)cc1)C(c1ccc(Cl)cc1)n1ccnc1 (stereo not given) are within 1.5-fold of each other in XC50: 735 nM for the first, 863 nM for the second.

First: Cc1nn(CCOC(=O)NC(NCC2COc3ccccc3O2)C(Cl)(Cl)Cl)cc1[N+](=O)[O-] (stereo not given)
Second: CCCC(C)NC[C@@H](O)[C@H](Cc1ccccc1)NC(=O)c1cc(C2CCCC2)cc(N2CCCCS2(=O)=O)c1 (stereo not given in full)
The XC50 of the first is 6.2-fold higher: 917 nM for the first, 147 nM for the second.

First: Cc1nc(N)nc(N)c1-c1cc(Cl)c(N)c(Cl)c1
Second: Cc1c(F)cc(C(=O)NC2CC2)cc1-c1ccc2c(cnn2S(=O)(=O)c2ccc(Cl)s2)c1
The XC50 of the first is 2.1-fold higher: 805 nM for the first, 391 nM for the second.

COc1ccc2[nH]ccc(=NN=Cc3ccccc3F)c2c1 and C=C(C)COc1ccc(-c2n[nH]c(C(F)(F)F)c2-c2ccccc2OC)c(O)c1 are within 1.5-fold of each other in XC50: 620 nM for the first, 781 nM for the second.

Compared with c1cncc(-c2cc(N3CCCCC3)nc(-c3ccncc3)n2)c1, CCc1ccc2c(c1O)CCN(C)C2Cc1ccccc1Cl (stereo not given) is 3.1-fold lower in XC50: 767 nM for the first, 251 nM for the second.

FC(F)(F)c1cccc(Nc2nc3nonc3nc2NC2C3CC4CC(C3)CC2C4)c1 (stereo not given) and CSc1sc(NC(=O)Nc2cccc(C(F)(F)F)c2)cc1C#N are within 1.5-fold of each other in XC50: 661 nM for the first, 912 nM for the second.

Cn1cc(CN2CCC(CCOC(c3ccccc3)c3ccccc3)CC2)cn1 and O=C(NCC1CC1)C1CCN(C(c2ccccc2)c2cc(F)cc(F)c2)CC1 (stereo not given) are within 1.5-fold of each other in XC50: 259 nM for the first, 380 nM for the second.

CN(C)S(=O)(=O)c1ccc(N2CCN(CCC3(c4cccc(F)c4)CCN(C(=O)C(C)(C)C)CC3)CC2)c2nonc12 and OCCN1CCN(C2Cc3ccc(F)cc3Sc3ccc(Cl)cc32)CC1 (stereo not given) are within 1.5-fold of each other in XC50: 697 nM for the first, 876 nM for the second.

First: NOCCCOc1ccccc1
Second: C1=CN(Cc2ccccc2)C=CC1=C1C=Nc2ccccc21
The XC50 of the first is 2.4-fold lower: 321 nM for the first, 756 nM for the second.

Cc1cc(F)ccc1-c1nc(N(C)CCN(C)C(=O)N(C)c2ccccc2)nc2c1ccc(=O)n2-c1c(F)cccc1F and Cc1cnc(CN(Cc2ccc(-c3ccc(CNCCc4ccc(S(C)(=O)=O)cc4)cn3)cc2)C(=O)c2ccc([N+](=O)[O-])c(C)c2)cn1 are within 1.5-fold of each other in XC50: 1240 nM for the first, 919 nM for the second.

Source: ChEMBL document CHEMBL1157539, “Thousands of chemical starting points for antimalarial lead identification” (Nature, 2010)
